Measurements reported in patent US20260231944A1, “ANTISEPTIC CONDITIONING FORMULATIONS” (THOMMES MEDICAL AG, priority 2023, published 2026).

How the values were obtained:
[1] = precipitation test of PHMB and CHX in alkaline buffers (visual inspection/visible clouding); type: physicochemical
[2] = tested on: Human periodontal ligament fibroblasts (HPDLF); assay: cell viability of human primary cells after antiseptics in T. buffer, AlamarBlue assay; type: cell-based
Protocol: Human periodontal ligament fibroblasts (HPDLF) were used in this study as test system, imitating closer the in vivo situation. The fibroblasts were purchased from ATCC and cultured in ScienCell FM medium, supplemented with 2% fetal bovine serum, 1% fibroblast growth factor and 1% penicillin-streptomycin (Sigma-Aldrich, Switzerland) in T75 flasks at 37° C. and 5% CO2.
To study the effect of antiseptic substances, at concentrations that are currently used in marketed products, the vitality of HPDLF cells was assessed. […] As a control, cells were incubated with T. buffer without antiseptic agent. Three replicate wells per concentration were tested. After 1 minute of incubation at 37°, the supernatant was removed and the wells were washed once with 600 μl of the fresh medium. Thereafter, cells were incubated with 600 µL of the fresh medium containing 0.015 mg/ml AlamarBlue dye, for 4 hours at 37° C. Finally, 100 μL of the medium were removed from each well and transferred to a new 96-well plate and the absorbance was measured using a BioTek microplate reader (test wavelength: 570 nm; reference wavelength: 630 nm).
After the incubation with the antiseptic agents, the metabolic activity was measured using an AlamarBlue assay (after 4 h).

Protocol for L929 murine fibroblasts: Mouse fibroblasts (L929 cell line) were used in this study as recommended cell line for cytotoxicity testing in accordance with EN ISO 10993-5.
The fibroblasts were purchased from ATCC and cultured in Dulbecco's Modified Eagle Medium-high glucose, supplemented with 10% fetal bovine serum and 1% penicillin-streptomycin (Sigma-Aldrich, Switzerland) in T75 flasks at 37° C. and 5% CO2. For the performance of the cytotoxicity experiments, L929 cells were seeded onto 96-well cell culture plates, 100 μ/well, at a density of 1×10^6 cells/mL to reach about 80% confluence after 24 hours.
After 60 minutes of incubation at 37°, the medium was removed and the wells were washed once with 100 μl of the fresh medium.
Thereafter, cells were incubated with 100 μL of the fresh medium containing 0.015 mg/ml AlamarBlue dye, for 2 hours at 37° C.
Finally, 100 μL of the media were removed from each well and transferred to a new 96-well plate and the absorbance was measured using a BioTek microplate reader (test wavelength: 570 nm; reference wavelength: 630 nm).
In order to test the cytocompatibility of alkaline buffers, a similar experiment was performed. However, the alkaline buffers were incubated for 10 minutes instead of 60 minutes. […]
After the incubation time, the metabolic activity, used as an indirect marker for cytotoxicity, was measured with an AlamarBlue assay. […]

**Q.** What does the source list for `[H]/N=C(\N/C(=N/[H])NCCCCCCNC(=N)NC(=N)Nc1ccc(Cl)cc1)Nc1ccc(Cl)cc1` [CHX, 1,6-bis(4-chloro-phenylbiguanido)hexane]?
**A.** precipitation ([1]; CHX 0.06% in 0.05 M NaOH/0.05 M glycine, pH 11.06): precipitation occurs; precipitation ([1]; CHX 0.06% in 0.05 M NaOH/0.1 M glycine, pH 9.9): no precipitation; cell viability ([2]; CHX 0.06 and 0.12% in T. buffer, 1 minute): Low cell viability

**Q.** With `C[S+](C)[O-]` [DMSO] as the compound, how does the cell viability ([2]; 5% DMSO (negative control)) read?
**A.** low cell viability

**Q.** With `[Na+].[OH-]` [sodium hydroxide] as the compound, how does the “metabolic activity (AlamarBlue)” value (L929 murine fibroblasts) read?
**A.** significant reduction in metabolic activity
